From article PMC7408072 (Pharmaceutics, 2020) come the findings set out here.

The structures appear in SMILES notation. Peptide text beside a SMILES is read from it. * marks the point of attachment. 5TAMRA = CN(C)c1ccc2c(c1)Oc1cc(N(C)C)ccc1C21OC(=O)c2cc(C(=O)*)ccc21

Data set [1] deals with primary bovine brain capillary endothelial cells co-cultured with primary rat astrocytes. Nature of the data set: Peptide stability on the in vitro bovine BBB model. The class given is in vitro ADME. Conditions: FBS-free differentiation medium, 50 µM peptide, bovine BCEC/rat astrocyte co-culture, 37 °C, 90 rpm, HPLC C18, 220 and 543 nm, mean ± SD, N = 3. The protocol:
BCECs co-cultured with rat astrocytes: a batch of capillary suspension was thawed and the DMSO removed by centrifugation in DMEM complete at 500× g for 5 min at room temperature. The pellet was re-suspended in DMEM complete and transferred to a culture flask (T75) coated with collagen and fibronectin (both 0.01 mg/mL in PBS). The capillary fragments were allowed to settle for 4–6 h in a humidified incubator (37 °C, 10% CO2) before changing the media to growth medium(+) (DMEM complete/ACM (1:1) with 125 µg/mL heparin) supplemented with 4 µg/mL pyromycin. On day 3, the BCECs received fresh growth medium(+) and rat astrocytes were seeded on the bottom of collagen and fibronectin coated (both 0.1 mg/mL in PBS) Transwell® plate permeable supports (Corning, Corning, NY, USA; 120,000 cells/1.12 cm^2 support with 0.4 µm pore size) in DMEM complete (37 °C, 10% CO2). On day 5, the media in the Transwell® plate was replaced by growth medium(-) (DMEM complete with 125 µg/mL heparin) and the endothelial cells detached from the flask using trypsin-EDTA (Thermo Fischer Scientific, Bedford, MA, USA). The remaining trypsin-EDTA was removed by centrifugation in DMEM complete at 1070× g for 5 min at room temperature. The endothelial cells were re-suspended in growth medium(-) and seeded on the apical side of the Transwell® plate permeable supports (100,000 cells/support). On day 8, the medium was changed to differentiation medium (DMEM containing 50 mM N-Tris-(hydroxymethyl)methyl-2-aminoethanesulfonic acid (TES), 10% FBS, 1% non-essential amino acids, 100 µg/mL penicillin/streptomycin (100 U/mL), 2 mM L-glutamine, 312.5 µM 8-(4-CPT)cyclic adenosine monophosphate, 0.5 µM dexamethasone, and 17.5 µM RO-20-1724). On day 11, the bovine BBB model was ready for use as evident by the measured transendothelial electrical resistance (TEER) values for each filter prior to experimental start.
Stability on the in vitro bovine BBB model: the differentiation medium was gently aspirated from the BCEC monolayers and replaced with 300 and 600 µL of 37 °C FBS-free differentiation medium containing 50 µM peptide on the luminal and abluminal side, respectively. The cells were incubated at 37 °C with horizontal shaking (90 rpm) for 4 h. Samples (10 µL) were withdrawn at 0, 10, 20, 30, 45, 60, 120, 180, and 240 min and two volumes of ice-cold ACN were immediately added prior to analysis by HPLC using an AdvanceBio Peptide Map column (C18, 4.6 × 150 mm, 2.7 µm particle size; Agilent, Glostrup, Denmark) connected to a Prominence system (LC-20 AD, SIL20 AC, SPD-M20A PDA, and CTO-20A modules; Shimadzu, Kyoto, Japan). Mobile phase A consisted of 95% ultrapure water and 5% ACN with 0.1% TFA and mobile phase B of 95% ACN and 5% ultrapure water with 0.1% TFA. […]

The next data set in a line: Tissue distribution. The data set is classed as in vivo, NMRI mice. As for the experimental part: Following 1 h of circulation, the mice were deeply anesthetized by i.p. injection of 0.05 mL/10 g body weight Ketaminol/Dexdormitor (2.25 mg ketamine/0.03 mg […] per 10 g body weight in 0.9% NaCl). The chest cage was opened and the mice transcardially perfused with 0.01 M PBS (pH 7.4) prior to isolation of the brain, heart, lungs, spleen, kidney, liver, and 2 cm of the upper part of the intestine. All tissues were immediately put on ice and kept at −80 °C until analysis.
The tissues were homogenized in 1 mL of ice-cold lysis buffer using a 7-mL Dounce tissue grinder set (Merck, St. Louis, MO, USA). Homogenates were left on ice for 10 min prior to centrifugation at 14,000× g and 4 °C for 10 min. Supernatants (100 µL) were transferred to a black clear-bottom 96-well plate for quantification of the TAMRA-peptides using a NovoStar fluorescence plate reader (BMG Labtech, Offenburg, Germany) with excitation and emission set to 542 and 568 nm, respectively. The molar peptide amounts were calculated using standard curves that were freshly prepared in lysates from relevant blank tissue at concentrations ranging from 30 nM to 2 µM.

Data set [2] relates to filter-grown BCECs co-cultured with rat astrocytes. Nature of the data set: Cellular viability, XTT assay. The data set is classed as cell-based. The conditions noted are these: 100 µM peptide, 3 h, bovine BCEC/rat astrocyte co-culture, N = 3, n = 3. As for the experimental part:
Briefly, the XTT labelling mixture was prepared by mixing electron coupling reagent with XTT labelling reagent at a 1:50 ratio. After peptide incubation, the monolayers were washed twice with 37 °C hHBSS. We applied 300 µL and 1 mL 37 °C hHBSS to the apical and basolateral compartments, respectively, prior to the addition of 150 µL XTT labelling mixture. The filters were incubated at 37 °C with horizontal shaking (90 rpm) for 1 h. Two 100 µL samples were withdrawn from the apical compartments and the absorbance measured at 466 nm using a SPECTROstar Nano plate reader (BMG Labtech, Offenburg, Germany). The relative cell viability was calculated as follows: Relative viability (%)=Asample−ASDS/Abuffer−ASDS×100% where Asample is the absorbance of the test sample, ASDS is the absorbance of the negative control (100% dead cells), and Abuffer is the absorbance of the positive control (100% viable cells).
Background: Formazan colour is commonly taken as a measure of viable cells.

[3] abbreviates: 3 nmol/g i.v., 1 h, NMRI mice, comparison among the Tat-conjugates.

Take `CN(C)c1ccc2c(c1)Oc1cc(N(C)C)ccc1C21OC(=O)c2cc(C(=O)N[C@@H](Cc3ccc(O)cc3)C(=O)NCC(=O)N[C@@H](CCCNC(=N)N)C(=O)N[C@@H](CCCCN)C(=O)N[C@@H](CCCCN)C(=O)N[C@@H](CCCNC(=N)N)C(=O)N[C@@H](CCCNC(=N)N)C(=O)N[C@@H](CCC(N)=O)C(=O)N[C@@H](CCCNC(=N)N)C(=O)N[C@@H](CCCNC(=N)N)C(=O)N[C@@H](CCCNC(=N)N)C(=O)O)ccc21` [TAMRA-Tat]: the “% remaining after 4 h of luminal incubation on the BCECs” value (“% remaining after 4 h” below) in data set [1] is given as 76.9% ± 5.6%. Further, in the data set “Tissue distribution” (3 nmol peptide/g body weight, tail vein, 1 h circulation, perfused NMRI mice, TAMRA fluorescence in whole tissue homogenate, mean ± SD, N = 4-6), the “amount in mouse brain homogenate” value is reported as 0.4% ± 0.1%. For the same compound, the “accumulation in the intestines” value in “Tissue distribution” (setting [3]) is recorded as “superior”. Further, the “TAMRA fluorescence in the brain homogenates (comparison)” value in the data set “Tissue distribution” (3 nmol/g i.v., 1 h, NMRI mice, unpaired t-test) is reported as “slightly higher levels”. Also, the “cell viability compared to media-treated control cells” value in data set [2] is recorded as “slight, but non-significant, decrease”.
As for `CC[C@H](C)[C@H](NC(=O)CCOCCOCCN(CCOCCOCCC(=O)N[C@H](C(=O)N[C@@H](CCC(=O)O)C(=O)N[C@H](C(=O)N[C@@H](CC(=O)O)C(=O)N[C@H](C(=O)O)C(C)C)[C@@H](C)O)[C@@H](C)CC)C(=O)[C@H](CCCNC(=N)N)NC(=O)[C@H](CCCNC(=N)N)NC(=O)[C@H](CCCNC(=N)N)NC(=O)[C@H](CCC(N)=O)NC(=O)[C@H](CCCNC(=N)N)NC(=O)[C@H](CCCNC(=N)N)NC(=O)[C@H](CCCCN)NC(=O)[C@H](CCCCN)NC(=O)[C@H](CCCNC(=N)N)NC(=O)CNC(=O)[C@H](Cc1ccc(O)cc1)NC(=O)c1ccc2c(c1)C(=O)OC21c2ccc(N(C)C)cc2Oc2cc(N(C)C)ccc21)C(=O)N[C@@H](CCC(=O)O)C(=O)N[C@H](C(=O)N[C@@H](CC(=O)O)C(=O)N[C@H](C(=O)O)C(C)C)[C@@H](C)O` [TAMRA-Tat-N-dimer], the “% remaining after 4 h” value in data set [1] is recorded as 85.0% ± 6.0%. In addition, in “Tissue distribution” (setting [3]), the “TAMRA fluorescence in the kidney” value is given as “more fluorescence in the kidney than TAMRA-Tat or TAMRA-Tat-NR2B9c”. In the data set “Tissue distribution” (male, NMRI, mouse, brain, iv, 3 nmol/g body weight, mice, tissue distribution (abstract), read-out: brain accumulation), the tissue uptake at 1 h was 0.25 %ID/g. In data set [2], the “cell viability compared to media-treated control cells” value is listed as “slight, but non-significant, decrease”.
Consider `CC[C@H](C)[C@H](NC(=O)[C@H](CO)NC(=O)[C@H](CO)NC(=O)[C@H](CC(C)C)NC(=O)[C@H](CCCCN)NC(=O)c1ccc2c(c1)C(=O)OC21c2ccc(N(C)C)cc2Oc2cc(N(C)C)ccc21)C(=O)N[C@@H](CCC(=O)O)C(=O)N[C@@H](CO)C(=O)N[C@@H](CC(=O)O)C(=O)N[C@H](C(=O)O)C(C)C` [TAMRA-NR2B9c] (5TAMRA-KLSSIESDV-OH), for which, in data set [1], the “% remaining after 4 h” value is 95.7% ± 1.6%. Moreover, the “cell viability compared to media-treated control cells” value in data set [2] is reported as “did not decrease cell viability”.
Take `CC[C@H](C)[C@H](NC(=O)[C@H](CO)NC(=O)[C@H](CO)NC(=O)[C@H](CC(C)C)NC(=O)[C@H](CCCCN)NC(=O)[C@H](CCCNC(=N)N)NC(=O)[C@H](CCCNC(=N)N)NC(=O)[C@H](CCCNC(=N)N)NC(=O)[C@H](CCC(N)=O)NC(=O)[C@H](CCCNC(=N)N)NC(=O)[C@H](CCCNC(=N)N)NC(=O)[C@H](CCCCN)NC(=O)[C@H](CCCCN)NC(=O)[C@H](CCCNC(=N)N)NC(=O)CNC(=O)[C@H](Cc1ccc(O)cc1)NC(=O)c1ccc2c(c1)C(=O)OC21c2ccc(N(C)C)cc2Oc2cc(N(C)C)ccc21)C(=O)N[C@@H](CCC(=O)O)C(=O)N[C@@H](CO)C(=O)N[C@@H](CC(=O)O)C(=O)N[C@H](C(=O)O)C(C)C` [TAMRA-Tat-NR2B9c] (5TAMRA-YGRKKRRQRRRKLSSIESDV-OH): the “% remaining after 4 h” value in data set [1] is recorded as 58.6% ± 13.1%. Moreover, in the data set “Tissue distribution” (setting [3]), the “accumulation in the liver” value is “to a greater extent than TAMRA-Tat and TAMRA-Tat-N-dimer”. The “cell viability compared to media-treated control cells” value in data set [2] is on record as “slight, but non-significant, decrease”.
